Results as given in ChEMBL document CHEMBL1153721, “Isohalitulin and haliclorensins B and C, three marine alkaloids from Haliclona tulearensis” (J Nat Prod, 2010).

Assay: Toxicity against Artemia salina
Format: organism-based
Conditions: in vivo, read-out: LD50 (the source's name)

In the case of `C[C@H]1CCCCCCCN(CCCn2cc(-c3c(O)c(O)cc4ncccc34)c(-c3c(O)c(O)cc4ncccc34)c2)C1` [ISOHALITULIN], the LC50 is reported as 900 µM.
With `C[C@H]1CCCCCCCCCCCCCNC1` [HALICLORENSIN C] the LC50 was 2100 µM.
With `C[C@H]1CCCCCCCN2C=[N+](CCC2)C1` [HALICLORENSIN B] the LC50 was 2200 µM.
